Experimental data: patent publication US11028111B2, “Compound for treating metabolic diseases and preparation method and use thereof” (Xi' An Biocare Pharma Ltd., priority 2017, dated 2021)

Columns and labels:
[1] = test system: 17α-Ethinylestradiol (E2-17α) induced cholestasis in rats; test: Bile discharge in 17α-ethinylestradiol (E2-17α) induced cholestasis in rats; type: in vivo, Sprague Dawley rats; settings: for Bile discharge amount compared with the ursodeoxycholic acid group: 105 minutes after administration, UDCA 15 mg/kg; for Bile flow rate compared with the E2-17α group / Effect on ameliorating intrahepatic cholestasis, promoting bile excretion: E2-17α cholestasis rats; for Bile flow rate compared with the E2-17α group: P<0.05 vs E2-17α; for Effect on ameliorating intrahepatic cholestasis, promoting bile excretion: conclusion
Method: Preparation of 1.0% CMC-Na solution: 1 p CMC-Na powder was weighed and added to 100 mL (50° C.) of distilled water, the mixture was rapidly stirred with a stirrer for 1 hour to fully swell, thereby to obtain a 1% CMC-Na solution.
Preparation of E2-17α solution in propylene glycol: 54/0.98=56 mp of E2-17α was weighed, dissolved in […] of propane-1,2-diol, shaked by a vortexer for 1 hour, thereby to obtain a 7 mp/mL suspension of E2-17α.
(§1) 17α-Ethinylestradiol (E2-17α) was administered by subcutaneous injection into the neck for model establishment for 7 days. Meantime, the test compounds were suspended in a 1% CMC-Na solution and administered by intragastric administration for 7 days during the E2-17α modeling.
(§2) E2-17α in propylene glycol was administered to rats for 7 days to establish the model, and different test samples in CMC-Na solution were administered by intragastric administration. On the 8th day, 1 mL of rat fasting blood sample was collected for detection of serum biochemical indicators, and E2-17α in propylene glycol was continuously administered to establish the model, and different test samples CMC-Na solution were administered by intragastric administration. After 0.5 hours of administration on the 9th day, the rats were weighed and anesthetized with 10% urethane (10 mL/kg) via intraperitoneal injection. After anesthesia, the rat was fixed on a board. A midline abdominal incision was made from the upper acetabular area, and the incision was about 2 to 3 cm. The indoor temperature should be maintained during the experiment, the body temperature of the rats was maintained and bile outflow was promoted. Handle of ophthalmic forceps was used to turn the liver up and find the duodenum and stomach junction. A suture (size 0) was placed at the junction to reserve. On the duodenum, about 2 cm away from the pylorus, a thin tube with a yellow transparent tube perpendicular to the duodenum could be found passing through the pancreas, that is, the common bile duct. At the junction of the common bile duct and the duodenum, the common bile duct was separated by an ophthalmic curved forceps, but was careful not to break the small blood vessels around the bile duct and avoided stimulating the pancreatic tissue by hand. After the separation, two sutures were place, and the suture close to the intestine end was ligated, as a traction suture, ophthalmic scissors were used to obliquely cut a small opening in the wall of the tube, a prepared pancreatic juice collection tube was inserted into the small opening. A mixture of yellow bile and pancreatic juice flowed out immediately after the insertion. The tube was ligated and fixed, and this tube was used to collect bile. After completion of the intubation, the skin was sutured. The other end of the bile duct intubation was taken out, flowing out to a fixed 0.5 mL centrifuge tube. Bile was continuously collected 8 times once every 15 minutes, until 120 minutes.
After completion of the intubation, the skin was sutured to prevent water evaporation of the abdominal cavity. The other end of the bile duct intubation was taken out, and the bile flowed out to a fixed 0.5 mL collection tube. Bile was continuously collected 8 times once every 15 minutes for a total of 120 minutes. Before the experiment, the collection tube was accurately weighed using an analytical balance. After the bile was collected in the experiment, the total weight of the bile and the collection tube was weighed, and the weight of the bile in the tube was calculated by subtraction and converted to a volume based on 1 g/mL.
(§3) The data were analyzed using SPSS18.0 statistics software. Measurement data were compared between the two groups using the t test. Multiple groups of means were compared using one-way analysis of variance (ANOVA) and multiple comparisons between groups. Data mean±standard error (Mean±SEM.) or mean±standard deviation (Mean±SD.).

[2] = test system: 17α-Ethinylestradiol (E2-17α) induced cholestasis in rats; test: Serum ALT, AST, ALP in E2-17α induced cholestasis rats; type: in vivo, Sprague Dawley rats; settings: for Serum ALP / Serum ALT / Serum AST: E2-17α cholestasis rats after intragastric administration, x ± s; for Values of ALT, AST, and ALP (serum): E2-17α cholestasis rats, in words
Method: as §1, §2
The blood sample was allowed to stand in a 37° C. water bath for 10 minutes, centrifuged at 3000 rpm (1368 g)×10 min, the serum was separated conventionally, dispensed and frozen at −20° C. for storage. The indicators to be detected in serum included ALT, AST, and ALP. The detection methods of the above indicators were all carried out in accordance with the relevant instructions of the kit.
as §3

[3] = test system: rat model of cirrhotic portal hypertension (TAA); test: Portal vein pressure in TAA-induced rat model of cirrhotic portal hypertension; type: in vivo, rats; settings: i.g.
Method: 1) Preparation of saline solution of TAA: 10 g of thioacetamide (TAA) was weighed and dissolved in 100 mL of saline solution, and then filtered through a 0.22 μm sterile membrane filter into a sterile bottle.
2) Preparation of 0.5% CMC-Na suspension of test compound: 400 mg of Compound 1-H, Compound 1-IP, Compound 1-Cl, Compound 1-Mel or Compound 2-0 were weighed and dissolved in 100 mL of 0.5% CMC-Na solution, and shaken by a vortexer for 30 minutes, thereby to obtain 20 mg/Kg (high dose) groups. That is, CMC-Na suspension of 4 mg/mL of Compounds 1-H, 1-IP, 1-Cl, 1-Mel or 2-0. For the middle and low dose groups, drug preparation methods were the same.
(§4) A rat model of cirrhotic portal hypertension was established by intraperitoneal injection of TAA. Except that the blank control group was intraperitoneally injected with saline, remaining animals were intraperitoneally injected (i.p.) with 10% thioacetamide (TAA) in saline solution to establish the model. The dose was 200 mg/Kg, and the administration volume was 2 mL/Kg. All experimental animals were intraperitoneally injected with TAA or an equal volume of saline once every three days. Before each dose, the rat shaving beddings should be replaced by clean ones in advance. The body weight was measured once every two modeling administration. The body weight of the rats increased or decreased by 10% compared with the previous one, the dose of TAA increased or decreased by […] correspondingly. The administration was individualized to strictly control body weight change of each rat, which could effectively improve the success rate and uniformity of modeling.
The successfully modeled animals were randomly grouped, 12 rats per group, and 20 rats in the blank control group. Portal hypertension was induced by TAA in rats, and a portal hypertension model was established after 13 days. The test compound was administered once a day for 10 days. […]
Rats were fasted for 12 hours before the experiment, and were anesthetized with 10% chloral hydrate via intraperitoneal injection. […] Stable portal vein pressure was measured. […]

[4] = test system: rat model of cirrhotic portal hypertension (TAA); test: Serum indicators (ALT, AST, ALP, ALB, γ-GT, TBA) in TAA cirrhotic portal hypertension rats; type: in vivo; settings: for Serum ALT level / Serum AST level: P<0.05
Method: as §4
(§5) The successfully modeled animals were randomly grouped, 12 rats per group, and 20 rats in the blank control group. Portal hypertension was induced by TAA in rats, and a portal hypertension model was established after 13 days. The test compound was administered once a day for 10 days. The specific groupings are shown as follows:
At the end of the administration, orbital blood was collected from the rats. The blood sample was placed in a 37° C. water bath for 10 minutes, centrifuged for 10 minutes at 3000 r/min (1370 g). Upper layer of the serum was taken and detected directly, or temporarily stored at −80° C., for serologic indicator measurement. After the blood samples were collected, the rats were fed with foods and water for 3 days.
1) 1.5 mL of orbital blood was collected before the experiment, of which the steps were the same as the aforesaid steps, to measure serum ALT, AST, ALP, γ-GT and TBA contents.

[5] = test system: rat model of cirrhotic portal hypertension (TAA); test: Liver appearance and liver pathological sections (Masson, HE) in TAA cirrhotic portal hypertension rats; type: in vivo
Method: as §4, §5
2) A small piece at same part of the liver of the rat was cut and fixed in a 10% formaldehyde solution for tissue section pathology observation. An appropriate size of the liver was cut off, and the blood on the surface was washed off quickly with saline, put into a sterile EP tube, cryopreserved in liquid nitrogen for subsequent experiments.

[6] = all administration groups, P<0.05, P<0.01

Row | SMILES | Bile discharge amount compared with the ursodeoxycholic acid group [1] | Bile flow rate compared with the E2-17α group [1] | Effect on ameliorating intrahepatic cholestasis, promoting bile excretion [1] | Serum ALP [2] | Serum ALT [2] | Serum AST [2] | Values of ALT, AST, and ALP (serum) [2] | other results
1 | CC[C@@H]1C2C[C@H](O)CC[C@]2(C)C2CC[C@@]3(C)C(CC[C@@H]3[C@H](C)CCO[P@@]3(=O)OCC[C@@H](c4ccncc4)O3)C2[C@@H]1O (some centres unmarked) [Compound 1-H] | significantly higher | significantly increased | significant effect | 218.64 ± 18.94 U/L | 72.36 ± 14.74 U/L | 228.82 ± 17.74 U/L | lower | Mean percentage change of portal vein pressure (vs mean of TAA group) ([3]; TAA + 5 mg/Kg): > 10%; Mean percentage change of portal vein pressure (vs mean of TAA group) ([3]; TAA + 10 mg/Kg): > 10%; Mean percentage change of portal vein pressure (vs mean of TAA group) ([3]; TAA + 20 mg/Kg): > 10%; Serum ALT level ([4]; 5 mg/Kg group): decreased; Serum AST level ([4]; 5 mg/Kg group): decreased; Serum ALT level ([4]; 10 mg/Kg group): decreased; Serum AST level ([4]; 10 mg/Kg group): decreased; Serum ALT level ([4]; 20 mg/Kg group): decreased; Serum AST level ([4]; 20 mg/Kg group): decreased; Serum TBA level ([4]; all administration groups, P<0.01): decreased; Serum ALP level (FIG. 10 (C)) [4, 6]: decreased; Serum γ-GT level [4, 6]: decreased; Appearance of liver and spleen (liver cirrhosis nodules) compared with TAA group ([5]; TAA + 5 mg/Kg): milder; Liver pathological sections (Masson, HE): liver fibrosis ([5]; TAA + 5 mg/Kg): symptoms of liver fibrosis were ameliorated; Effect on hyperplasia of liver fibrous tissue and pseudolobule formation (pathological indicators) ([5]; TAA rats, all dose groups): certain improvement effects
2 | C[C@H](CCC(=O)O)[C@H]1CC[C@H]2[C@@H]3[C@@H](O)C[C@@H]4C[C@H](O)CC[C@]4(C)[C@H]3CC[C@]12C [UDCA, ursodeoxycholic acid, reference compound] |  |  |  | 242.18 ± 12.10 U/L | 85.55 ± 13.80 U/L | 263.36 ± 15.35 U/L |  | 
3 | CC[C@@H]1C2C[C@H](O)CC[C@]2(C)C2CC[C@@]3(C)C(CC[C@@H]3[C@H](C)CCO[P@](=O)(N[C@@H](C)C(=O)COC(C)C)Oc3ccccc3)C2[C@@H]1O (some centres unmarked) [Compound 2-0] |  | significantly increased | significant effect | 220.35 ± 12.92 U/L | 78.64 ± 10.65 U/L | 236.59 ± 13.06 U/L | lower | 
4 | CC(C)[C@@H]1C2C[C@H](O)CC[C@]2(C)C2CC[C@@]3(C)C(CC[C@@H]3[C@H](C)CCOP3(=O)OCC[C@@H](c4ccncc4)O3)C2[C@@H]1O (some centres unmarked) [Compound 1-IP] |  | significantly increased | significant effect | 230.92 ± 14.00 U/L | 87.42 ± 11.72 U/L | 258.83 ± 10.82 U/L | lower | 
5 | CC[C@@H]1C2C[C@H](O)CC[C@]2(C)C2CC[C@@]3(C)C(CC[C@@H]3[C@H](C)CCOP3(=O)OC(C)C[C@@H](c4ccncc4)O3)C2[C@@H]1O (some centres unmarked) [Compound 1-Me1] |  | significantly increased | significant effect | 235.64 ± 16.26 U/L | 80.64 ± 13.22 U/L | 252.18 ± 16.59 U/L | lower | 
6 | CC[C@@H]1C2C[C@H](O)CC[C@]2(C)C2CC[C@@]3(C)C(CC[C@@H]3[C@H](C)CCOP3(=O)OCC[C@@H](c4ccnc(Cl)c4)O3)C2[C@@H]1O (some centres unmarked) [Compound 1-Cl] | significantly higher | significantly increased | significant effect | 226.65 ± 12.38 U/L | 77.36 ± 11.42 U/L | 230.89 ± 12.38 U/L | lower | 
